# Tests used:
# [1] = tested on: SK-MEL-5
# [2] = tested on: HT29
# [3] = tested on: UACC-257
# [4] = tested on: SNB-75
# [5] = tested on: K-562
# [6] = tested on: NCI/ADR-RES
# [7] = tested on: A549/ATCC
# [8] = tested on: HCT-15
# [9] = tested on: NCI-H460
# [10] = tested on: NCI-H23
# [11] = tested on: HOP-62
# [12] = tested on: MDA-MB-435
# [13] = tested on: MOLT-4
# [14] = tested on: CAKI-1
# [15] = tested on: MDA-MB-231/ATCC
# [16] = tested on: U251
# [17] = tested on: PC-3
# [18] = tested on: UACC-62
# [19] = tested on: MALME-3M; assay: panel of 60 human tumor cell lines, growth inhibition (Melanoma)
# [20] = tested on: SK-MEL-28
# [21] = tested on: SW-620
# [22] = tested on: NCI-H522
# [23] = tested on: A498
# [24] = tested on: SF-295
# [25] = tested on: SK-OV-3
# [26] = tested on: SF-268
# [27] = tested on: OVCAR-5
# [28] = tested on: SR
# [29] = tested on: HOP-92
# [30] = tested on: OVCAR-8
# [31] = tested on: T-47D
# [32] = tested on: HS 578T
# [33] = tested on: RPMI-8226; assay: panel of 60 human tumor cell lines, growth inhibition (Leukemia)
# [34] = tested on: UO-31
# [35] = tested on: 786-0
# [36] = tested on: HCC-2998
# [37] = tested on: NCI-H226
# [38] = tested on: IGROV1
# [39] = tested on: LOX IMVI
# [40] = tested on: TK-10
# [41] = tested on: CCRF-CEM
# [42] = tested on: KM12; assay: panel of 60 human tumor cell lines, growth inhibition (Colon Cancer)
# [43] = tested on: HL-60(TB); assay: cells; conditions: Homo sapiens
# [44] = tested on: panel of 60 human tumor cell lines; assay: panel of 60 human tumor cell lines, whole panel or sub-panel (single concentration screen, summaries); type: cell-based; conditions: single concentration of 10^−5 M, read-out: growth inhibition in at least eight human cancer cell lines from the panel
# [45] = tested on: OVCAR-4; assay: panel of 60 human tumor cell lines, growth inhibition (Ovarian Cancer); type: cell-based; conditions: Homo sapiens, OVCAR-4, five dose
# [46] = tested on: AML 052308 cells
# Text: Derivatives were screened for antileukemic activity against AML cells in culture (See FIGS. 1-7).
# [47] = MALME-3M, Log10 Concentration −4.0
# [48] = MALME-3M, Log10 Concentration −5.0
# [49] = MALME-3M, Log10 Concentration −6.0
# [50] = MALME-3M, Log10 Concentration −7.0
# [51] = MALME-3M, Log10 Concentration −8.0
# [52] = RPMI-8226, Log10 Concentration −4.0
# [53] = RPMI-8226, Log10 Concentration −5.0
# [54] = RPMI-8226, Log10 Concentration −6.0
# [55] = RPMI-8226, Log10 Concentration −7.0
# [56] = RPMI-8226, Log10 Concentration −8.0
compound,measurement,setting,value
C=C1C(=O)O[C@H]2[C@H]1CC/C(COC(=O)NCCO)=C\CC[C@@]1(C)O[C@@H]21 [JVM 2-50],CC50,[1],> 100 µM
same,CC50,[2],≥ 100 µM
same,CC50,[3],63.5 µM
same,CC50,[4],> 100 µM
same,CC50,[5],> 100 µM
same,CC50,[6],> 100 µM
same,CC50,[7],> 100 µM
same,CC50,[8],57.5 µM
same,CC50,[9],> 100 µM
same,CC50,[10],94.3 µM
same,CC50,[11],> 100 µM
same,CC50,[12],52 µM
same,CC50,[13],> 100 µM
same,CC50,[14],73.8 µM
same,CC50,[15],75.5 µM
same,CC50,[16],> 100 µM
same,CC50,[17],> 100 µM
same,CC50,[18],58.3 µM
same,Percent Growth,[19]; [47],−67%
same,Percent Growth,[19]; [48],58%
same,Percent Growth,[19]; [49],110%
same,Percent Growth,[19]; [50],111%
same,Percent Growth,[19]; [51],107%
same,GI50,"[19]; MALME-3M, NCI five dose",11.5 µM
same,TGI,"[19]; MALME-3M, NCI five dose",2.91E−5
same,CC50,[20],79.4 µM
same,CC50,[21],74 µM
same,CC50,[22],9.13 µM
same,CC50,[23],> 100 µM
same,CC50,[24],> 100 µM
same,CC50,[25],> 100 µM
same,CC50,[26],99.1 µM
same,CC50,[27],92.4 µM
same,CC50,[28],> 100 µM
same,CC50,[29],42.3 µM
same,CC50,[30],> 100 µM
same,CC50,[31],87.4 µM
same,CC50,[32],> 100 µM
same,Percent Growth,[33]; [52],−49%
same,Percent Growth,[33]; [53],33%
same,Percent Growth,[33]; [54],93%
same,Percent Growth,[33]; [55],97%
same,Percent Growth,[33]; [56],98%
same,GI50,"[33]; RPMI-8226, NCI five dose",5.14 µM
same,TGI,"[33]; RPMI-8226, NCI five dose",2.51E−5
same,CC50,[34],77.1 µM
same,CC50,[35],66.4 µM
same,CC50,[36],77.2 µM
same,CC50,[37],> 100 µM
same,CC50,[38],> 100 µM
same,CC50,[39],57.1 µM
same,CC50,[40],52.3 µM
same,CC50,[41],> 100 µM
C=C1C(=O)O[C@H]2[C@H]1CC/C(COC(=O)N1CCN(C)CC1)=C\CC[C@@]1(C)O[C@@H]21 [JVM 2-44],CC50,[1],58.7 µM
same,CC50,[2],62 µM
same,CC50,[3],54.1 µM
same,CC50,[4],61.2 µM
same,CC50,[5],> 100 µM
same,CC50,[6],> 100 µM
same,CC50,[7],> 100 µM
same,CC50,[8],56.6 µM
same,CC50,[9],> 100 µM
same,CC50,[10],82.4 µM
same,GI50,[42]; KM12,14.2 µM
same,TGI,[42]; KM12,3.13E−5
same,Mean Optical Densities,"[42]; KM12, Log10 Concentration −4.0",0.105
same,Percent Growth,"[42]; KM12, Log10 Concentration −4.0",−74%
same,Mean Optical Densities,"[42]; KM12, Log10 Concentration −5.0",1.680
same,Percent Growth,"[42]; KM12, Log10 Concentration −5.0",72%
same,Mean Optical Densities,"[42]; KM12, Log10 Concentration −6.0",2.184
same,Percent Growth,"[42]; KM12, Log10 Concentration −6.0",101%
same,Mean Optical Densities,"[42]; KM12, Log10 Concentration −7.0",2.151
same,Percent Growth,"[42]; KM12, Log10 Concentration −7.0",99%
same,Mean Optical Densities,"[42]; KM12, Log10 Concentration −8.0",2.117
same,Percent Growth,"[42]; KM12, Log10 Concentration −8.0",97%
same,CC50,[11],> 100 µM
same,CC50,[12],57.5 µM
same,CC50,[13],> 100 µM
same,CC50,[14],42.8 µM
same,CC50,[15],67 µM
same,CC50,[16],88.7 µM
same,CC50,[17],> 100 µM
same,CC50,[18],54.1 µM
same,GI50,[19]; MALME-3M,3.33 µM
same,TGI,[19]; MALME-3M,1.20E−5
same,Mean Optical Densities,[19]; [47],0.168
same,Percent Growth,[19]; [47],−63%
same,Mean Optical Densities,[19]; [48],0.461
same,Percent Growth,[19]; [48],5%
same,Mean Optical Densities,[19]; [49],0.705
same,Percent Growth,[19]; [49],99%
same,Mean Optical Densities,[19]; [50],0.680
same,Percent Growth,[19]; [50],89%
same,Mean Optical Densities,[19]; [51],0.702
same,Percent Growth,[19]; [51],98%
same,CC50,[20],56.5 µM
same,CC50,[21],58.3 µM
same,CC50,[22],8.2 µM
same,CC50,[23],> 100 µM
same,CC50,[24],> 100 µM
same,CC50,[25],> 100 µM
same,CC50,[26],75.7 µM
same,CC50,[27],68.6 µM
same,CC50,[28],> 100 µM
same,CC50,[29],44.3 µM
same,CC50,[30],80.6 µM
same,CC50,[31],82.3 µM
same,CC50,[32],> 100 µM
same,CC50,[34],47.6 µM
same,CC50,[35],72.3 µM
same,CC50,[36],71.9 µM
same,CC50,[37],> 100 µM
same,CC50,[38],76 µM
same,CC50,[39],55.9 µM
same,CC50,[40],41.6 µM
same,CC50,[41],> 100 µM
C=C1C(=O)O[C@H]2[C@H]1CC/C(COC(=O)NCCN1CCCCC1)=C\CC[C@@]1(C)O[C@@H]21 [JVM 2-13],CC50,[1],58.3 µM
same,CC50,[2],50.4 µM
same,CC50,[3],49.9 µM
same,CC50,[4],48.8 µM
same,CC50,[5],> 100 µM
same,CC50,[6],> 100 µM
same,CC50,[7],98.5 µM
same,CC50,[8],50.7 µM
same,CC50,[9],78.1 µM
same,CC50,[10],65.5 µM
same,GI50,[42]; KM12,14.4 µM
same,TGI,[42]; KM12,2.98e-05 M
same,Percent Growth,"[42]; KM12, Log10 Concentration −4.0",−83%
same,Percent Growth,"[42]; KM12, Log10 Concentration −5.0",75%
same,Percent Growth,"[42]; KM12, Log10 Concentration −6.0",101%
same,Percent Growth,"[42]; KM12, Log10 Concentration −7.0",106%
same,Percent Growth,"[42]; KM12, Log10 Concentration −8.0",106%
same,CC50,[11],68.5 µM
same,CC50,[12],43.8 µM
same,CC50,[13],> 100 µM
same,CC50,[14],40.4 µM
same,CC50,[15],56.5 µM
same,CC50,[16],64.1 µM
same,CC50,[17],70.9 µM
same,CC50,[18],50.1 µM
same,GI50,[19]; MALME-3M,1.47 µM
same,TGI,[19]; MALME-3M,4.6e-06 M
same,Percent Growth,[19]; [47],−57%
same,Percent Growth,[19]; [48],−34%
same,Percent Growth,[19]; [49],67%
same,Percent Growth,[19]; [50],99%
same,Percent Growth,[19]; [51],103%
same,CC50,[20],47.2 µM
same,CC50,[21],50.3 µM
same,CC50,[22],7.25 µM
same,CC50,[23],53.1 µM
same,CC50,[24],> 100 µM
same,CC50,[25],> 100 µM
same,CC50,[26],60.2 µM
same,CC50,[27],55.2 µM
same,CC50,[28],> 100 µM
same,CC50,[29],42.1 µM
same,CC50,[30],58.4 µM
same,CC50,[31],62.4 µM
same,CC50,[32],> 100 µM
same,CC50,[34],49.5 µM
same,CC50,[35],56.2 µM
same,CC50,[36],70.1 µM
same,CC50,[37],> 100 µM
same,CC50,[38],81.2 µM
same,CC50,[39],56.2 µM
same,CC50,[40],35.8 µM
same,CC50,[41],> 100 µM
"C=C1C(=O)O[C@H]2[C@H]1CC/C(COC(=O)NCCN1CCCC1)=C\CC[C@@]1(C)O[C@@H]21 [JVM 59, ((1aR,7aS,10aS,10bS,E)-1a-methyl-8-methylene-9-oxo-1a,2,3,6,7,7a,8,9,10a,10b-decahydrooxireno[2′,3′:9,10]cyclodeca[1,2-b]furan-5-yl)methyl-(2-(pyrrolidin-1-yl)ethyl)carbamate]",GI50,"[42]; Homo sapiens, KM12",23.9 µM
same,CC50,"[42]; Homo sapiens, KM12, read-out: LC50",> 100 µM
same,TGI,"[42]; KM12, five dose",7.00E−5
same,Percent Growth,"[42]; KM12, Log10 Concentration −4.0",−17%
same,Percent Growth,"[42]; KM12, Log10 Concentration −5.0",90%
same,Percent Growth,"[42]; KM12, Log10 Concentration −6.0",96%
same,Percent Growth,"[42]; KM12, Log10 Concentration −7.0",95%
same,Percent Growth,"[42]; KM12, Log10 Concentration −8.0",96%
same,GI50,[43]; HL-60,4.15 µM
same,CC50,"[43]; HL-60, read-out: LC50",70.3 µM
same,IC (TGI),"[43]; HL-60, read-out: TGI",18.3 µM
same,GI50,"[19]; Homo sapiens, Malme-3M",4.18 µM
same,CC50,"[19]; Homo sapiens, Malme-3M, read-out: LC50",55.2 µM
same,TGI,"[19]; MALME-3M, five dose",1.59E−5
same,Percent Growth,[19]; [47],−74%
same,Percent Growth,[19]; [48],18%
same,Percent Growth,[19]; [49],102%
same,Percent Growth,[19]; [50],93%
same,Percent Growth,[19]; [51],91%
same,inhibition at 10 µM,[44],> 60%
same,GI50,[45],10.4 µM
same,IC (TGI),[45],24.7 µM
same,CC50,[45]; read-out: LC50 (the source's name),58.5 µM
same,GI50,"[33]; Homo sapiens, RPMI-8226",8.71 µM
same,CC50,"[33]; Homo sapiens, RPMI-8226, read-out: LC50",97.1 µM
same,TGI,"[33]; RPMI-8226, five dose",3.01E−5
same,Percent Growth,[33]; [52],−51%
same,Percent Growth,[33]; [53],47%
same,Percent Growth,[33]; [54],97%
same,Percent Growth,[33]; [55],98%
same,Percent Growth,[33]; [56],184%
same,cytotoxicity compared to MMB,[46],almost equal cytotoxicity to MMB

# From US9469650B2, “Melampomagnolide B derivatives” (BOARD OF TRUSTEES OF THE UNIVERSITY OF ARKANSAS, priority 2013, dated 2016)
